Experimental data: PubChem BioAssay (NCI)
Several values for one entry are separate records, joined by “and”; a condition that tells them apart may be missing. Equal values may be shown once.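 Where inhibition never reached the appropriate level, the endpoint shown equals the highest concentration tested. Otherwise, values were interpolated linearly from a five-concentration, 48-hour dose response in 96-well plates. GI50 marks 50% less growth. TGI: total growth inhibition.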

Tests used:
Assay in all cases: NCI anticancer screen, dose series, 48 h
OVCAR-5 ovarian = tested on: OVCAR-5 ovarian
OVCAR-4 ovarian = tested on: OVCAR-4 ovarian
A549 NSCLC = tested on: A549 NSCLC
HOP-62 NSCLC = tested on: HOP-62 NSCLC
HCC-2998 colon = tested on: HCC-2998 colon
MALME-3M melanoma = tested on: MALME-3M melanoma
HCT-15 colon = tested on: HCT-15 colon
HT29 colon = tested on: HT29 colon
LOX IMVI melanoma = tested on: LOX IMVI melanoma
SR leukemia = tested on: SR leukemia

| SMILES | GI50 (OVCAR-5 ovarian) | TGI (OVCAR-5 ovarian) | GI50 (OVCAR-4 ovarian) | TGI (OVCAR-4 ovarian) | GI50 (A549 NSCLC) | TGI (A549 NSCLC) | GI50 (HOP-62 NSCLC) | TGI (HOP-62 NSCLC) | GI50 (HCC-2998 colon) | TGI (HCC-2998 colon) | GI50 (MALME-3M melanoma) | TGI (MALME-3M melanoma) | GI50 (HCT-15 colon) | TGI (HCT-15 colon) | GI50 (HT29 colon) | TGI (HT29 colon) | GI50 (LOX IMVI melanoma) | TGI (LOX IMVI melanoma) | GI50 (SR leukemia) | TGI (SR leukemia) |
| --- | --- | --- | --- | --- | --- | --- | --- | --- | --- | --- | --- | --- | --- | --- | --- | --- | --- | --- | --- | --- |
| CCOC(=O)[C@@H](C)C[C@H](Cc1ccccc1)NC(=O)c1csc([C@@H](C[C@H](C(C)C)N(C)C(=O)CNC(=O)[C@H]2CCCCN2C)OC(C)=O)n1 | 3.58 µM | > 14.3 µM | 1.3 µM | > 14.3 µM | 3.49 µM | > 14.3 µM | 1.87 µM | > 14.3 µM | 0.795 µM | > 14.3 µM | 0.601 µM | > 14.3 µM | 1.49 µM | > 14.3 µM | 0.467 µM | > 14.3 µM | 2.14 µM | > 14.3 µM | 0.145 µM | > 14.3 µM |
| CCCCCCCCCCCCCC(=O)O[C@H]1CC[C@H](NC(=O)[C@H](OC)[C@H](O)[C@@H](O)[C@H](O)/C=C/C(C)C)C(=O)N(C)C1 | > 23.8 µM | 15 µM and > 23.8 µM | 0.00391 µM | 15 µM and 11.1 µM | 0.00238 µM | 15 µM and 4.49 µM | > 23.8 µM | 15 µM and > 23.8 µM | 0.00238 µM | 0.63 µM and 4.25 µM | 0.00717 µM | 15 µM and > 23.8 µM | 0.23 µM | 15 µM and > 23.8 µM | 0.00238 µM | 15 µM and 3.07 µM | – | 15 µM and 3.34 µM | – | 2.46 µM |
| O=C([O-])c1ccc([I+]c2ccccc2)cc1 | – | > 100 µM | – | > 100 µM | – | > 100 µM | – | > 100 µM | – | > 100 µM | – | > 100 µM | – | > 100 µM | – | > 100 µM | – | > 100 µM | – | > 100 µM |
| CCC(Oc1ccc(OC)c2c1C(=O)CCC2)C(=O)O (stereo not drawn) | – | > 100 µM | – | > 100 µM | – | > 100 µM | – | > 100 µM | – | > 100 µM | – | > 100 µM | – | > 100 µM | – | > 100 µM | – | > 100 µM | – | > 100 µM |
| Cc1nc2ccncc2[nH]1 | – | > 100 µM | – | > 100 µM | – | > 100 µM | – | > 100 µM | – | > 100 µM | – | > 100 µM | – | > 100 µM | – | > 100 µM | – | > 100 µM | – | > 100 µM |
| O=C1OC(=O)c2c1nc1ccccc1c2-c1ccccc1 | – | > 100 µM | – | > 100 µM | – | > 100 µM | – | > 100 µM | – | > 100 µM | – | > 100 µM | – | > 100 µM | – | > 100 µM | – | > 100 µM | – | > 100 µM |
| S=C(Sc1ccc(Cl)cc1)Sc1ccc(Cl)cc1 | 2.32 µM | 4.81 µM | 3.03 µM | 10.9 µM | 2.99 µM | 13.7 µM | 3.39 µM | 7.58 µM | 3.08 µM | 10.3 µM | 2.31 µM | 4.8 µM | 1.77 µM | 4.71 µM | 1.95 µM | 3.99 µM | 1.13 µM | 2.37 µM | 0.362 µM | 2.03 µM |
| CN(C)C1C(=O)C(C(N)=O)=C(O)C2(O)C(=O)C3=C(O)c4c(O)cccc4C(C)(O)C3CC12.[Cl][Sb]([Cl])[Cl] (stereo not drawn) | 7.29 µM | 26.1 µM | 4.45 µM | 19 µM | 3.47 µM | 13.8 µM | 4.66 µM | 15.5 µM | 3.57 µM | 14.1 µM | 1.94 µM | 4.6 µM | 3.59 µM | 16.1 µM | 3.79 µM | 12.2 µM | 2.63 µM | 12.3 µM | 2.88 µM | 7.36 µM |
| C=C1C(=O)O[C@@H]2C[C@@]3(C)[C@H](O)CCC(=C)[C@@H]3C[C@H]12 | – | 20.5 µM | – | 26.7 µM | – | 70.5 µM | – | 34 µM | – | 23.8 µM | – | 12.6 µM | – | 35.1 µM | – | 12.1 µM | – | 20.7 µM | – | 14 µM |
| CN(C)CCCOc1ccc(NC2=C(Cl)C(=O)C(Nc3ccc(OCCCN(C)C)cc3)=C(Cl)C2=O)cc1 | 1.69 µM | 3.18 µM | 0.14 µM | 0.27 µM | 0.731 µM | 2.12 µM | 1.83 µM | 3.31 µM | 0.769 µM | 2.09 µM | 0.336 µM | 0.935 µM | 0.411 µM | 0.958 µM | 0.237 µM | 0.657 µM | 0.422 µM | 0.902 µM | 0.312 µM | 3.25 µM |
| OCC1OC(OC2(CO)OC(CO)C(O)C2O)C(O)C(O)C1O (stereo not drawn) | > 100 µM | > 100 µM | > 100 µM | > 100 µM | > 100 µM | > 100 µM | > 100 µM | > 100 µM | > 100 µM | > 100 µM | > 100 µM | > 100 µM | > 100 µM | > 100 µM | > 100 µM | > 100 µM | > 100 µM | > 100 µM | > 100 µM | > 100 µM |
| Nc1ncnc2c1c(-c1ccc(Oc3ccccc3)cc1)nn2CC1SSCC1O (stereo not drawn) | 7.2 µM | 28.8 µM | 2.2 µM | 22.1 µM | 3.8 µM | 9.17 µM | 3.6 µM | 11.1 µM | 6.75 µM | 20.5 µM | 0.847 µM | 3.78 µM | 3.03 µM | 9.88 µM | 1.27 µM | 6.36 µM | 0.335 µM | 4.96 µM | 0.251 µM | 2.11 µM |
| C/C(=C/CCC(C)[C@@H]1CC[C@]2(C)C3=C(CC[C@@]12C)[C@@]1(C)CCC(=O)C(C)(C)[C@@H]1CC3)C(=O)O (stereo partly drawn) | 1.68 µM | 3.29 µM | 1.27 µM | 3.02 µM | 0.387 µM | 1.84 µM | 1.99 µM | 3.57 µM | 1.1 µM | 2.44 µM | 1.66 µM | 3.5 µM | 0.974 µM | 3 µM | 1.39 µM | 3.04 µM | 0.961 µM | 2.49 µM | 1.14 µM | 2.93 µM |
| CC(=O)Nc1cccc(C#Cc2cncnc2Nc2ccc(OCc3cccc(F)c3)c(Cl)c2)c1 | 12.7 µM | > 25 µM | 7.6 µM | > 25 µM | 5.87 µM | > 25 µM | > 19.8 µM | > 25 µM | 7.94 µM | > 25 µM | 12.5 µM | > 25 µM | 7.41 µM | > 25 µM | 7.89 µM | > 25 µM | 8.12 µM | > 25 µM | > 18.7 µM | > 25 µM |
